From ChEMBL document CHEMBL1137152, “Copper dipicolinates as peptidomimetic ligands for the Src SH2 domain” (Bioorg Med Chem Lett, 2004)
pIC50: −log10 of the molar value.

The molecules below were run against T1, Proto-oncogene tyrosine-protein kinase Src (Homo sapiens, UniProt P12931) (assay: Inhibition of fluorescent (GpYEEI) binding to Src protein tyrosine kinase SH2 domain; NA = No significant inhibition).
T1 sequence (P12931 2-536 limits assumed): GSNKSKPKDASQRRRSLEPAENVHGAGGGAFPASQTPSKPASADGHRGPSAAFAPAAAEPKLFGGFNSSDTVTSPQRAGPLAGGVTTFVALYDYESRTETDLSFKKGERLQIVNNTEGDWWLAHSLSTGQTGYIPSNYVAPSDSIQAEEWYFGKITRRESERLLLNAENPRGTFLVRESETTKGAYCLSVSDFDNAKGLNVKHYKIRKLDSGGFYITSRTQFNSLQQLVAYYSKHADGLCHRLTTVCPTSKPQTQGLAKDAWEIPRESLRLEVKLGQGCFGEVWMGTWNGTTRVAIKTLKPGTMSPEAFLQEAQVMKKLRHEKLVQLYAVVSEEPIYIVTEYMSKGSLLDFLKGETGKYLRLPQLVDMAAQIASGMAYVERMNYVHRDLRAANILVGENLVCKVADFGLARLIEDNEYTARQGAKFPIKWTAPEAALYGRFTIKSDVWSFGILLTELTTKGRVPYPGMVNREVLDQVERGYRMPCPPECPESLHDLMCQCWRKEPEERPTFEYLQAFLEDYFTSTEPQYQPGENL
For COC(=O)c1cc(OCC(=O)N[C@H](C(=O)NCc2cccc(OC)c2)c2ccccc2)cc(C(=O)OC)n1, the IC50 was “Not Active”.

What follows are molecules tested against T1, Proto-oncogene tyrosine-protein kinase Src (assay: Inhibition of fluorescent (GpYEEI) binding to Src protein tyrosine kinase SH2 domain).
Work on COC(=O)c1cc(OCC(=O)N[C@@H](Cc2ccccc2)C(=O)NCc2ccc3c(c2)OCO3)cc(C(=O)OC)n1 yielded a pIC50 of 3.40.
For COC(=O)c1cc(OCC(=O)N[C@@H](CC(C)C)C(=O)NCc2cccc(OC)c2)cc(C(=O)OC)n1, the pIC50 was 3.15.
For COC(=O)c1cc(OCC(=O)N[C@@H](Cc2ccccc2)C(=O)NCc2cccc(OC)c2)cc(C(=O)OC)n1, the pIC50 was 3.18.
Molecule COc1ccc(CNC(=O)[C@H](CC(C)C)NC(=O)COc2cc(C(=O)O)cc(C(=O)O)c2)cc1 has a pIC50 of 3.06.
COC(=O)c1cc(OCC(=O)N[C@H](C(=O)NCc2ccc3c(c2)OCO3)c2ccccc2)cc(C(=O)OC)n1 gave a pIC50 of 3.15.
